From patent EP0934745B1, “Use of androsterone derivatives for inhibiting DNA binding of ap-1 and airway smooth muscle proliferation” (CHARLOTTE-MECKLENBURG HOSPITAL doing business as Carolinas …, priority 1998, dated 1999)

Test system: rat tracheal smooth muscle
Experiment: Proliferation of cultured airway smooth muscle (MTT reduction, cell counts)
Assay type: cell-based
Conditions: Rattus norvegicus; 50,000 cells/well cultured in 10% FBS for 48 hours; MTT reduction (Figure 3D); read-out: 50% inhibitory concentration
Protocol: Polyclonal horseradish peroxidase anti-rabbit IgG was from Transduction Laboratories (Lexington, KY). M-MLV reverse transcriptase was from Life Technologies (Gaithersburg, MD). All other materials were obtained from Sigma unless specified. Measurement of Cultured Airway Smooth Muscle Proliferation. Rat tracheal smooth muscle was cultured by euthanizing rats with pentobarbital overdose and removal of their tracheas. The posterior tracheal membrane was isolated, minced and digested twice for 30 minutes at 37°C. in HBSS containing 0.2% type IV collagenase and 0.05% type IV elastase. Each enzyme digest was collected and centrifuged for 5 minutes at 500 g at room temperature. The supernatant was removed and the pellet was resuspended in DMEM supplemented with 10% FBS, nonessential amino acids, penicillin (100 U/ml), streptomycin (100 µg/ml) and amphotericin (250 ng/ml). Cells were seeded in this medium into 25-cm^2 flasks at 2 x 10^5 cells per flask and incubated in a humidified atmosphere of 5% CO2/95% air at 37°C. Upon reaching confluence, cells were detached with 0.25% trypsin-0.002% EDTA solution for passage.
Proliferation of cultured airway smooth muscle was quantitated using modification of a previously reported colorimetric method based upon metabolic reduction of the soluble yellow tetrazolium dye 3-[4,5-dimethylthiazol]-2yl-2,5-diphenyl tetrazolium bromide (MTT) to its insoluble purple formazan by the action of mitochondrial succinyl dehydrogenase. See Hirst, S.J., Barnes, P.J., and Twort, C.H.C., "Quantifying proliferation of cultured human and rabbit airway smooth muscle in response to serum and platelet derived growth factor," Am. J. Respir. Cell Mol. Biol., 7, 574-581 (1992). This assay empirically distinguishes between dead and living cells. For proliferation studies, cells were seeded into 24-well uncoated plastic plates at 15,000-50,000 cells per well and cultured with DMEM and mitogens. After 24-96 hours the medium was replaced with 1 ml/well fresh DMEM containing 100 µg/ml MTT and 0.5% FBS, and plates were incubated an additional hour MTT-containing medium was removed, cells were washed twice with 1 ml of sterile Dulbecco's modified phosphate buffered saline without Ca^2+ or Mg^2+ (DPBS), 0.5 ml dimethylsulfoxide (DMSO) was added to each well, and the absorbance of the solubilized purple formazan dye was measured at 540 nm on a Shimadzu UV160U spectrophotometer. A total of 4-6 wells was studied at each treatment condition.
The optimum concentration of FBS for use as a mitogenic stimulus was determined by incubating 15,000 cells per well with DMEM containing 0.25, 1.0, 5.0 or 10.0% FBS and MTT reduction was determined after 24, 48, 72 or 96 hours. […] After 24 hours, cells were washed twice with DPBS, fixed and permeabilized by two sequential 5 minute exposures to ice-cold methanol, stained with Giemsa-modified Wright's stain for 3 minutes and washed with DPBS. Cell counts were performed on 10 random fields at 40 power using a 0.01-cm^2 ocular grid. Cell Culture Treatments for Measurement of Airway Smooth Muscle Proliferation. The effect of dehydroepiandrosterone (DHEA) and 16α-bromoepiandrosterone (16α-BrEA) on cellular proliferation was studied in cultures stimulated with 0.5-10% FBS or 1-50 ng/ml recombinant human platelet derived growth factor (PDGF-AA). […] See, for example, the method of Le, Y. Y. , and Xu, R.B., "The molecular mechanism of the action of the pharmacological doses of glucocorticoids. Studies on the low-affinity glucocorticoid receptor," Receptor, 5, 63-69 (1995).

C[C@@H]1C[C@H]2[C@@H]3CCC4=CC(=O)C=C[C@]4(C)[C@@]3(F)[C@@H](O)C[C@]2(C)[C@@]1(O)C(=O)CO [dexamethasone, reference compound]
IC50: 10 µM
